For one assay, the system named is Cdc20. The following applies: cited from earlier work. The source says: This specificity raises the exciting possibility of activator-specific targeted protein degradation as a therapeutic application.
The target of the next assay is T1, APC/C^apo (Saccharomyces cerevisiae, UniProt P38042+P53068).
T1 construct: APC/C was purified from yeast cells; made in house; host or cells: S. cerevisiae W303 strain NHY13 (Cdc16-TAP, Apc1-GFP, cdh1 deleted)
Put plainly: SMOR assay, yeast APC/C^apo (no activator). It is filed as binding. The protocol:
Yeast strains were derivatives of W303 and are listed in Supplementary Table 2. For APC/C purification, we used a strain carrying Cdc16-TAP and lacking Cdh1 (DOM1126); in most experiments, the strain also carried Apc1-GFP (NHY13). Yeast were grown in YPD media to OD600 = 0.8, collected and flash-frozen. Cells were lysed by bead beating in lysis buffer A (50 mM HEPES pH 7.5, 150 mM KCl, 10% glycerol, 0.2% Triton X-100, 63 µM B-glycerophosphate, 48 µM sodium fluoride, 1 µg ml^−1 pepstatin A, 1 µg ml^−1 leupeptin, 1 µg ml^−1 aprotinin, 1 mM PMSF, 1 mM DTT, 0.5 mM EDTA) and APC/C was purified using magnetic IgG beads. The beads were washed using wash buffer A (20 mM HEPES pH 7.5, 150 mM KCl, 10% Glycerol, 0.05% Triton X-100). After incubation with purified Cdh1 or Cdc20, the APC/C was cleaved off the beads with TEV protease in wash buffer A with 0.05% Tween-20 (for single-molecule studies) or 0.05% Triton X-100 (for ensemble assays such as ubiquitylation) and used immediately.
(§1) For all SMOR experiments, 24 × 50 mm high precision glass coverslips (Bioscience Tools) and drilled microscope slides were passivated with a combination of PEG and PEG-biotin (coverslips) or PEG only (slides) following a previously published protocol for SiMPull[31]. Reaction chambers (~20 µl) were created using double-sided tape and epoxy. Protein was immobilized on the surface with 0.2 mg ml^−1 NeutrAvidin in buffer C (20 mM HEPES pH 7.5, 150 mM KCl, 10% glycerol, 0.05% Tween-20, 1 mM DTT). Excess NeutrAvidin was washed away and incubated with either biotin-conjugated mouse monoclonal anti-Strep-Tag II antibody (LSBio, Cat. No. LS-C203632-100) or biotin-conjugated rabbit polyclonal anti-GFP antibody (Rockland, Cat. No. 600-406-215) diluted in buffer C + BSA (0.1 mg ml^−1; Molecular Biology Grade Bovine Serum Albumin). Activator WD40 and activated APC/C (typically 50 µl containing about 65 ng APC/C, of which only a small fraction is immobilized on the glass) were immobilized using anti-Strep-Tag II, while APC/C alone was immobilized with anti-GFP. SMOR results were similar when performed in the buffer (wash buffer B) used in polarization anisotropy.
(§2) To capture dynamic protein–protein interactions, dye-labeled substrate diluted in buffer C + BSA was added to the chamber containing immobilized proteins. Interactions were imaged by TIRF microscopy as described below. For optimal signal-to-noise ratio, peptide concentration was no greater than 1 nM. Protein substrates included Hsl1 aa 667–872 and a C-terminal HaloTag followed by a TAP tag, and were produced by translation in rabbit reticulocyte lysates using TnT Quick Coupled Transcription/Translation System (Promega) (see Supplementary Table 5 for plasmids). Protein was purified with magnetic IgG beads and labeled on the bead with JF549 or JF646 dye so that unbound dye could be washed away. Purified dye-labeled protein was then cleaved from the beads using TEV protease. Before adding substrate to the reaction chamber, oxygen scavenging reagents were added (10 nM protocatechuate-3,4-dioxygenase, 2.5 mM protocatechuic acid, and 1 mM Trolox)[41]. A detailed description of the SMOR analysis pipeline is found in Supplementary Note 1.
Microscopy was performed with a Nikon Eclipse TE2000-E with Perfect Focus with a 100 × 1.49na oil, Apo TIRF DIC N2, 0.13-0.2, WD0.12 objective. Movies were recorded using the Andor iXon DU-897E-CSO. For visualizing GFP-tagged protein, a 491 nm laser was used with an ET525/50 (Chroma) filter for emission. For visualizing JF549-labeled substrate, a 561 nm laser was used with an ET595/50 (Chroma) filter for emission. For visualizing all Cy5-labeled peptides and JF646-labeled substrates, a 640 nm laser was used with an ET685/70 filter (Chroma) for emission. Initially, for each substrate tested, we acquired movies at multiple intervals to deduce the optimal interval to decrease bleaching. µManager version 2.0 was used to control the microscope and record time-lapse movies.

Another assay has as its target T2, Cdh1 WD40 domain (yeast) (Saccharomyces cerevisiae, UniProt P53197).
T2 construct: the WD40 domains of yeast Cdh1 (aa 241–550; pNH144); 2xStrep-Tag II (N); made in house; host or cells: Sf9 insect cells (baculovirus)
T2 sequence (P53197 241-550): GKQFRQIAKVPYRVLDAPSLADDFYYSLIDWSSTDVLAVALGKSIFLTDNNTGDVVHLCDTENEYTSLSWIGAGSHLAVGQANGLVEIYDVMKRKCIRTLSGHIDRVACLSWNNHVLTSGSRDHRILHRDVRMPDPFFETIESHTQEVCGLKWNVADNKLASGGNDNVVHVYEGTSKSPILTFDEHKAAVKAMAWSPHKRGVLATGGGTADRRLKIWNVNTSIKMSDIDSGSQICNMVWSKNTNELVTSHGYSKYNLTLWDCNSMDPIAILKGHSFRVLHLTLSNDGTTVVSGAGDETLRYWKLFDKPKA
Put plainly: Fluorescence anisotropy, 10 nM Cy5-labeled degron peptide, yeast Cdh1 WD40. It is filed as binding. The text has this: To determine the affinities of APC/C degrons for their binding sites, we first used conventional equilibrium binding assays of degron peptide binding to the activator. We used the baculovirus system to produce the WD40 domain of Cdh1 from the budding yeast Saccharomyces cerevisiae and measured fluorescence anisotropy to assess the binding of fluorescently-tagged degron peptides at increasing activator concentrations. The WD40 domain of yeast Cdc20 could not be expressed and was not studied.
(§3) Activators were cloned into the pFastBac HT A vector, with an N-terminal 2xStrep-Tag II. For some experiments, we constructed vectors for expression of the WD40 domains of yeast Cdh1 (aa 241–550; pNH144), human Cdh1 (aa 165–484; pNH164), or human Cdc20 (aa 162–484; pNH188). For SMOR, a C-terminal GFP tag was added. Bacmid plasmids are listed in Supplementary Table 3. Plasmids were transformed into DH10Bac cells, and purified Bacmid was used to transfect Sf9 cells to generate P1 baculovirus, which was used to generate P2 virus. SF9 cells were infected with the P2 virus for 48 h. Flash-frozen pellets were lysed by sonication or high-pressure homogenization in lysis buffer B (50 mM Tris-HCl pH 8, 150 mM KCl, 0.5 mM EDTA, 1 mM DTT, 10% Glycerol, EDTA-free protease inhibitor tablet, 1 µg ml^−1 pepstatin A). After the lysate was applied to the StrepTrap column, the column was washed with wash buffer B (lysis buffer B lacking protease inhibitors) and eluted in the same buffer containing 2.5 mM desthiobiotin.
Fluorescent degron peptides carried a C-terminal Cy5 label (CPC Scientific) and are listed in Supplementary Table 4. For anisotropy experiments, 10 nM fluorescent peptide was mixed with various concentrations of purified Cdh1 WD40 in wash buffer B at room temperature for 1 min, which we determined was sufficient for the binding reaction to reach equilibrium. Fluorescence was measured on a K2 Multifrequency Fluorometer at 25 °C. All Cy5-labeled peptides were excited with polarized light at 635 nm and emission was detected using a 700/75 nm bandpass filter (ET series, Chroma). […] Data were fitted to one-site equilibrium binding using GraphPad Prism version 8.4 to determine KD. Results were the same when peptide binding was measured in the buffer used in SMOR assays (buffer C, below).

Another assay deals with T3, Cdh1^WD40 (Saccharomyces cerevisiae, UniProt P53197).
T3 construct: the WD40 domains of yeast Cdh1 (aa 241–550; pNH144); made in house; host or cells: Sf9 insect cells (baculovirus)
T3 sequence (P53197 241-550): T2 sequence (P53197 241-550)
Nature of the assay: SMOR assay (single-molecule off-rate, TIRF), yeast Cdh1^WD40. The class given is binding. The procedure: as §3, §1, §2
(§4) Microscopy was performed with a Nikon Eclipse TE2000-E with Perfect Focus with a 100 × 1.49na oil, Apo TIRF DIC N2, 0.13-0.2, WD0.12 objective. Movies were recorded using the Andor iXon DU-897E-CSO. For visualizing GFP-tagged protein, a 491 nm laser was used with an ET525/50 (Chroma) filter for emission. For visualizing JF549-labeled substrate, a 561 nm laser was used with an ET595/50 (Chroma) filter for emission. For visualizing all Cy5-labeled peptides and JF646-labeled substrates, a 640 nm laser was used with an ET685/70 filter (Chroma) for emission. […]

The target in a further assay is T4, hCdh1^WD40 (Homo sapiens, UniProt Q9UM11).
T4 construct: human Cdh1 (aa 165–484; pNH164); made in house; host or cells: Sf9 insect cells (baculovirus)
T4 sequence (Q9UM11 165-484): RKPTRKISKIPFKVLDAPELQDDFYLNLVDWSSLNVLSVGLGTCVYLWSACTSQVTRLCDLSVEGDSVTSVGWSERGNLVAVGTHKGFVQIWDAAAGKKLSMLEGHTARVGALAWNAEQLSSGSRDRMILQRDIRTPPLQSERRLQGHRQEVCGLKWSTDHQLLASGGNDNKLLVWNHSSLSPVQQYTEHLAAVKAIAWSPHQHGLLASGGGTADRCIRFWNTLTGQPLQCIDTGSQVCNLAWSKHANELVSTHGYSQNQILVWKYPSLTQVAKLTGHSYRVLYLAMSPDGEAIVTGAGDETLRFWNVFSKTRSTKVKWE
Nature of the assay: SMOR assay, human Cdh1 WD40. The class given is binding. The following applies: human Cdh1, D-box binding; read-out: inferred kon. The procedure:
as §3, §1, §2, §4

[1] abbreviates: mean of the listed replicates, source data of Fig. 1a (there μM), read-out: Mean Kd.
Where [2] appears, read: replicate 2021-11-10, source data of Fig. 1a (there μM), read-out: Kd.
[3] abbreviates: replicate 2019-07-08, source data of Fig. 1a (there μM), read-out: Kd.

The source of these data is PMC8764033, “Single-molecule analysis of specificity and multivalency in binding of short linear substrate motifs to the APC/C” (Nature Communications, 2022).

Where two headings read alike, the source gives them in different places. Where a SMILES comes first, the peptide text is derived from it.

The term Kd denotes the constant that tells how readily two partners part at equilibrium. A word on the kon: it is the rate constant with which the complex forms. One may read the koff as a measure of how fast the partners let go of each other.

Regarding `Cc1ncc([N+](=O)[O-])n1CCOC(=O)NC(Nc1ncccn1)C(Cl)(Cl)Cl` (centres unmarked) [Apcin], in the assay with Cdc20, the “activator specificity (in words)” value was “Cdc20 specificity”.
As to “(Cy5)-SLIFDAFNQIR [Cdh1 IR, Cy5-labeled yeast Cdh1 C-terminal IR peptide]”, the “Dwell Time” value at APC/C^apo (Supplementary Table 1, replicate 1 (movie listed first)) was found to be 0.616 ± 0.019 s; on APC/C^apo (Supplementary Table 1, replicate 2 (movie listed second)), 0.557 ± 0.011 s. Also, the mean dwell time at APC/C^apo (representative movie, ± SE, buffer C + BSA) was 0.616 ± 0.02 s.
For “EQKPKRAALSDITNSFNKMN-K(Cy5) [Hsl1 D box and dark KEN, Cy5 Hsl1 D box peptide (10 nM) in presence of unlabeled Hsl1 KEN (100 µM)]”, the results for the Kd at Cdh1 WD40 domain (yeast) (setting [1]) and at Cdh1 WD40 domain (yeast) (setting [2]) were 1.12 µM and 1.04 µM, respectively.
With “GVSTNKENEGPEYPTKIE-K(Cy5) [Hsl1 KEN and dark D box mutant, Cy5 Hsl1 KEN peptide (10 nM) in presence of unlabeled mutated Hsl1 D box (100 µM)]”, the Kd amounted to 10.9 µM at Cdh1 WD40 domain (yeast) (setting [1]), 6.35 µM on Cdh1 WD40 domain (yeast) (setting [3]) and 15.5 µM on Cdh1 WD40 domain (yeast) (setting [2]).
Regarding “EQKPKRAALSDITNSFNKMN-K(Cy5) [Hsl1 D box and dark KEN mutant, Cy5 Hsl1 D box peptide (10 nM) in presence of unlabeled mutated Hsl1 KEN (100 µM)]”, the Kd at Cdh1 WD40 domain (yeast) (setting [1]) came to 2.86 µM; at Cdh1 WD40 domain (yeast) (setting [2]), 2.16 µM; at Cdh1 WD40 domain (yeast) (replicate 2021-11-15, source data of Fig. 1a (there μM), read-out: Kd), 3.56 µM; on Cdh1 WD40 domain (yeast) (representative single experiment, Fig. 1c, dark = unlabeled peptide 100 µM, read-out: KD), 3.6 µM.
As for `CC[C@H](C)[C@H](NC(=O)[C@H](CC(=O)O)NC(=O)[C@H](CO)NC(=O)[C@H](CC(C)C)NC(=O)[C@H](C)NC(=O)[C@H](C)NC(=O)[C@H](CCCNC(=N)N)NC(=O)[C@H](CCCCN)NC(=O)[C@@H]1CCCN1C(=O)[C@H](CCCCN)NC(=O)[C@H](CCC(N)=O)NC(=O)[C@@H](N)CCC(=O)O)C(=O)N[C@H](C(=O)N[C@@H](CC(N)=O)C(=O)N[C@@H](CO)C(=O)N[C@@H](Cc1ccccc1)C(=O)N[C@@H](CC(N)=O)C(=O)N[C@@H](CCCCN)C(=O)N[C@@H](CCSC)C(=O)N[C@@H](CC(N)=O)C(=O)N[C@@H](CCCCN)C(=O)O)[C@@H](C)O` [Hsl1 D box] (H-EQKPKRAALSDITNSFNKMNK-OH), the Kd at Cdh1 WD40 domain (yeast) (setting [1]) worked out at 3.48 µM. In addition, the kon on Cdh1^WD40 (inferred from koff and anisotropy KD, yeast Cdh1, read-out: association rate constant kon) amounted to 800000 M⁻¹ s⁻¹; at hCdh1^WD40, 100000 M⁻¹ s⁻¹. For the same molecule, the koff on Cdh1^WD40 (reciprocal of mean dwell time, read-out: dissociation rate constant koff) came to 2.8 s⁻¹.
On to “GVSTNKENEGPEYPTKIE-K(Cy5) [Hsl1 KEN and dark D box, Cy5 Hsl1 KEN peptide (10 nM) in presence of unlabeled Hsl1 D box (100 µM)]”, for which the Kd stood at 3.37 µM on Cdh1 WD40 domain (yeast) (setting [1]), 3.41 µM at Cdh1 WD40 domain (yeast) (setting [3]) and 3.34 µM on Cdh1 WD40 domain (yeast) (setting [2]).
